row,melting point [°C],SMILES
1,113 to 115,COC(=O)Cc1ccc(CN2CCN(C(c3ccccc3)c3ccc(Cl)cc3)CC2)cc1 (stereo not given)
2,91 to 93,Nc1nc2ccccc2c2c1ncn2CCCCNC(=O)c1cccc2cccnc12
3,104 to 106,NC(=O)CCCN(CCCC1CCCCC1)C(=O)Nc1ccccc1
4,183 to 185,CCc1nc2nc(C)nn2c(O)c1CCC(C)CC(C)(C)C (stereo not given)
5,96 to 98,CCOC(=O)C1=CC(=O)C2(C(=O)c3ccccc3)OC2O1 (stereo not given)
6,280,COC(=O)CCc1cc2cc(Cl)c(Cl)cc2n1S(=O)(=O)c1ccccc1
7,197,N#Cc1ccc(C=Cc2ccc(N(CCO)CCO)cc2)cc1
8,146 to 148,COc1cc(OC)nc(C2(Cl)OC(=O)c3ncccc32)n1 (stereo not given)
9,> 280,CNc1c(F)cc2c(=O)c(C(=O)O)cn(-c3ccc(F)c(O)c3)c2c1C
10,105 to 107,CS(=O)c1ccc2nc(C(F)(F)F)nc(Cl)c2c1 (stereo not given)
11,175 to 179,O=C(O)C1=Cc2cc(Cl)cc(CO)c2OC1C(F)(F)F (stereo not given)
12,147 to 149,Nc1c(F)c(-c2ccc(C(F)(F)F)nc2)nc(C=O)c1Cl
13,176 to 177,COc1ccc(C2=NNC(=O)CC2c2ccccc2)cc1 (stereo not given)
14,94 to 106,CC(C)C(NC(=O)Cn1cccc(NC(=O)Nc2ccccc2)c1=O)C(=O)C(F)(F)F (stereo not given)
15,166,CCc1ccc(C(=O)N[C@H](Cc2ccccc2)C(=O)O)cc1
16,114 to 117,CS(=O)(=O)Nc1ccccc1OC/C=C/CN1CCC(OC(c2ccccc2)c2cccs2)CC1 (stereo not given)
17,215 to 216,O=C1NCC(C(F)(F)F)C(=O)N1c1ccccc1 (stereo not given)
18,140 to 141,CCOc1nc(C(=O)O)c2c(n1)nc(OCC)n2Cc1ccc(-c2ccccc2-c2nnn[nH]2)cc1
19,76 to 77,COc1cc(C=C(Br)Br)cc(OC)c1OCc1ccccc1
20,145 to 147,COC(=O)CCC(=O)c1cc(NC(C)=O)ccc1O
21,141 to 142,Cc1ccc(S(=O)(=O)NCCCN(CCN(CCCNS(=O)(=O)c2ccc(C)cc2)S(=O)(=O)c2ccc(C)cc2)S(=O)(=O)c2ccc(C)cc2)cc1
22,135 to 136,CC1(C)NC(=O)CN1C(=O)CNC(=O)OCc1ccccc1
23,87 to 89,CCCCCCCCCCCCCCCCCCNC(=O)OCC(CNS(=O)(=O)CCCI)NC(=O)NC (stereo not given)
24,216 to 217,COc1cc(-c2cc(=O)c3ccccc3o2)cc([N+](=O)[O-])c1OC

row,melting point [°C],SMILES
1,186,COc1cc(O)nc(C2CC2)n1
2,95 to 96.5,CCOC(=O)c1cc2c(C(F)(F)F)cc(CP(=O)(OCC)OCC)cc2n1C
3,126 to 127,CC(C)[C@H](N)C(=O)NC(Cc1ccccc1)C(O)C(Cc1ccccc1)NC(=O)[C@@H](NC(=O)OCc1ccccc1)C(C)C (stereo not given in full)
4,168 to 170,Cc1ccc(-c2cn(C)cc(-c3ccccc3)c2=O)cc1Br
5,102 to 103,Cc1oc(-c2ccccc2)nc1CCc1ccc(/C=C/CO)cc1
6,180 to 181,COc1ccc(CSc2nnc(-c3ccnc(NC(=O)CCc4ccccc4)c3)o2)cc1C(F)(F)F
7,80 to 82,COc1ccc(O)cn1
8,177 to 178,COC(=O)c1cnc(S)n1Cc1cc(F)cc(F)c1
9,170 to 171,COC(=O)C=Cc1cnc(Cl)cc1NCc1ccc(OC)c(Cl)c1
10,148 to 150,COc1cc(OC)c([N+](=O)[O-])c(C(=O)NC2CCN(C(c3ccccc3)c3ccccc3)CC2)c1
11,136,Cc1c(Cl)ncc2ncc(-c3ccccc3)cc12
12,69 to 70,CC(C)(C)OC(=O)NCCCCC(=O)NCCC(=O)OCc1ccccc1
13,96 to 97,CC(C)(NC(=O)CCNC(=O)OCc1ccccc1)c1ccccc1
14,169 to 170,COC(=O)c1ccc(Cn2c3c(c4cc(F)cc(F)c42)CCCC3CC(=O)O)cc1 (stereo not given)
15,217,OC1(C2CCC(c3c(F)cccc3F)=N2)C=CC(c2ccccc2)=CC1 (stereo not given)
16,244,O=C(c1ccc(OC(F)F)c2oc3ccccc3c12)[NH+]([O-])c1ccncc1 (stereo not given)
17,187,Cc1c(Cl)ccc2c1[nH]c1c(CO)cccc12
18,41 to 42,CC(C)C(=O)N1C(=O)C2C=CC1C2 (stereo not given)
19,70 to 72,COc1ccccc1-c1ccc(C)cc1
20,134 to 136,O=C(O)CCCN(C(=O)c1ccc(Cl)cc1Cl)c1cccc2ccccc12
21,179,CC1NC2=NCCN2C1c1ccccc1 (stereo not given)
22,77 to 78,COC(=O)CC(=O)NC1CCCCC1
23,70 to 73,CCCCCCC(=O)N[C@@H](C(=O)OCc1ccccc1)[C@@H](C)O
24,191,COc1ccc(S(=O)(=O)N2C(=O)C(OC(=O)Oc3ccccc3)(c3ccccc3C(F)(F)F)c3cc(Cl)ccc32)c(OC)c1 (stereo not given)

row,melting point [°C],SMILES
1,161 to 163,CN(C)C(=O)C(C)(C)n1cc(Cl)c(-c2ccccc2Cl)n1
2,174,CCOC(=O)c1nccn1C1Sc2ccccc2C1=O (stereo not given)
3,120 to 121,C#CCNC(=O)c1c(Br)cccc1[Si](C)(C)C
4,220 to 221,N#Cc1ncn2c1COC(=O)c1ccccc1-2
5,57 to 61,O=C(NC/C=C\COc1cc(CN2CCCC2)ccn1)c1cn[nH]c1
6,157,Nc1nccnc1C(=O)NCCN1CCC(Nc2nc3ccccc3n2Cc2ccc(F)cc2)CC1
7,63 to 65,NNc1c(F)cc(F)c(F)c1F
8,221 to 223,COc1cc2c(cc1Nc1ncc(C(F)(F)F)c(Nc3ccc(N4CCOCC4)cc3OC)n1)N(C)C(=O)OCC2
9,167 to 168,O=C(NCc1noc(-c2c3ccccc3nn2CCn2ccnc2)n1)c1ccccc1
10,102 to 104,CCc1cccc(C)c1S(=O)(=O)c1nn(C(=O)N(CC)CC)cc1OC
11,186 to 188,CC(C)Cn1cnc(C#N)c1N
12,221 to 223,CC(C)n1nc(-c2cc(C(=O)O)cnc2-c2ccccc2)ccc1=O
13,109 to 111,O=C1Oc2ccccc2C1c1ccccc1 (stereo not given)
14,185 to 189,CC(C)N1CCN(Cc2ccc(NC(=O)c3cccc4cc(Oc5cc(N)ncn5)ccc34)cc2C(F)(F)F)CC1
15,51 to 54,CCOC1CC2(C)C(CCC3C4CC=CC4(C)CC(N(C)C)C32)CC1O (stereo not given)
16,107 to 108,COc1cc(C(C)O)c([N+](=O)[O-])cc1OC (stereo not given)
17,188 to 190,NS(=O)(=O)c1ccc2c(c1)C=C(C(=O)O)C(C(F)(F)F)O2 (stereo not given)
18,222 to 224,N#Cc1cc2c(cc1F)OCC21C(=O)Nc2ccccc21 (stereo not given)
19,170 to 172,CC(C)[C@@H](NS(=O)(=O)c1ccc2ccccc2c1)C(=O)O
20,163 to 178,CSc1ccc(-c2cc3ncnc(Nc4ccc5[nH]ccc5c4)c3s2)cc1
21,185 to 188,CNC(=NC#N)NCCSCc1noc(NC(=N)N)n1
22,228 to 230,CC(Cn1ncnn1)n1nnc2cc3c(=O)n(C)nnc3cc2c1=O (stereo not given)
23,89.5 to 90.5,CCOC(=O)Cc1cccc2c(-c3ccc([N+](=O)[O-])cc3)nccc12
24,158 to 163,CCCOc1ccc(S(=O)(=O)N2CCN(CC)C(C(=O)OCC)C2)cc1-c1nc2cc3nc[nH]c3cc2c(=O)[nH]1 (stereo not given)

row,melting point [°C],SMILES
1,125 to 126,COc1cccc(CNCc2ccc3nc(N)c4ncn(CC(C)C)c4c3c2)c1
2,189 to 190,CCOC(=O)c1cc(NCc2ccccc2)c(Oc2ccc(OC)cc2)c(S(N)(=O)=O)c1
3,100 to 102,COC(=O)C(=O)c1ccc(OC/C=C/c2ccc3ccccc3c2)cc1
4,253 to 256,COc1cc(-c2nc(-c3ccc(N(C)C)cc3)c(C)[nH]2)ccc1OC(C)=O
5,101 to 104,CC(C)(C)c1cc(CC(C)(C)[N+](=O)[O-])cc(C(C)(C)C)c1O
6,141 to 142,C/C=C\Cn1c(Oc2cc(C)cc(C)c2)c(C(C)C)c(=O)[nH]c1=O
7,228 to 230,O=C1CCC(N2Cc3c(OCc4ccc(F)c(F)c4)cccc3C2=O)C(=O)N1 (stereo not given)
8,74,CC(=O)c1ccc(OCCCCl)cc1O
9,150 to 152,Cc1ccc(-c2cnc(-c3ccc(C(F)(F)F)cc3)s2)s1
10,121 to 122,COc1ccc(-c2ccc(O)c(C3(C)CCCCC3)c2)cc1CC1SC(N2CCCC2)=NC1=O (stereo not given)
11,112,COc1ccc2[nH]c(C(=O)c3cc4ccccc4[nH]3)cc2c1
12,130 to 133,O=C(O)C(=O)c1cnsn1
13,151 to 152,COc1cc(OC)nc(O[C@H]2CCCC[C@H]2C(=O)O)n1 (relative stereo)
14,189 to 190,Cc1nc(-n2cnn(Cc3ccc(F)cc3)c2=O)sc1C(=O)NCc1nccs1
15,119 to 120,CC(C)CCCC(C)C1CCC2C3CC=C4CC(OS(C)(=O)=O)CCC4(C)C3CCC12C (stereo not given)
16,173 to 175,CCOP(=O)(OCC)C(O)[C@H](CC1CCCCC1)NC(=O)[C@H](CC(C)C)NC(=O)[C@H](Cc1ccccc1)NC(=O)OC(C)(C)C (stereo not given in full)
17,162 to 165,CN(C)C1Cc2cc(Br)cc([N+](=O)[O-])c2NC1=O (stereo not given)
18,124 to 125,C=Cc1nc(C(C)C)c(Sc2cc(Cl)cc(Cl)c2)n1C
19,114,CN[C@@H](CSC(c1ccccc1)(c1ccccc1)c1ccccc1)C(=O)O
20,252 to 255,Cc1[nH]cnc1C=C1CCc2c(C)c3ccccc3n2C1=O
21,228,COc1cc(C(=O)c2nc(NC(=O)C(F)(F)F)c3ccccn23)ccc1[N+](=O)[O-]

row,SMILES,melting point [°C]
1,OC1(C#Cc2ccc(-c3ccccn3)cc2)CN2CCC1CC2 (stereo not given),205 to 206
2,CC(C)(C)C(NC(=O)c1ccc(Cl)cc1)NC(=N[N+](=O)[O-])Nc1cccnc1 (stereo not given),203 to 204
3,CN1Cc2c(C#Cc3ccc(Cl)cc3)ncn2-c2ccc(F)cc2C1=O,221 to 222
4,CCN1CC[C@@H]2CC(=O)c3cc(F)ccc3[C@@H]2C1 (relative stereo),> 220
5,CCCCn1cc(C(=O)C(=O)O)c2cc(-c3ccc(Cl)cc3)ccc21,136 to 137
6,O=C(CCNC(=O)[C@H](Cc1ccc(-c2ccccc2)cc1)NCP(=O)(Oc1ccccc1)Oc1ccccc1)OCc1ccccc1,83 to 84
7,CCCN1CCC(O)(c2cc(F)cc(F)c2)C1 (stereo not given),117 to 118

# From a melting point compilation (Tetko et al.; mined from patent text by program, amines drawn as free bases though some values may be those of a salt)
